Source: patent publication US9326956B2, “Methods for improving brain development and cognitive function using beta-hydroxy-beta methylbutyrate” (Abbott Laboratories, priority 2011, dated 2016)

Tests used:
[1] = HMB concentration over time in brain interstitial fluid (hippocampus microdialysis) after oral administration; type: in vivo, Sprague-Dawley rats
Description: In this Example, the appearance of HMB and its concentration over time in brain interstitial fluid were analyzed after oral administration of HMB.
Initially, Sprague-Dawley rats (Charles River, France) weighing 400-500 g were housed in cages at constant room temperature (22±2° C.) and 45-55% humidity under a regular 12-hour light/dark schedule. Food and water were freely available. Procedures involving animals and their care were conducted in conformity with the institutional guidelines that are in compliance with national laws and EC policies for the Care and Use of Laboratory Animals (RD 2101-2005, 86/609/CEE).
A guide cannula was stereotaxically inserted into the hippocampus area of each anesthetized rat at the coordinates described in a stereotaxic atlas for rats. The rats were allowed to recover from surgery for at least three days. On the first day of the experiment, a brain microdialysis probe (MD-2204, BR-4, 4 mm membrane, available from BASi, West Lafayette, Ind.) was inserted into the guide cannula of each rat. The probe was perfused with Ringer's solution (aCFS Harvard apparatus, #597316) at a constant rate of 2 μl/min. The rat was left in the cage with space for relatively free movement. Samples of dialysate were automatically collected every twenty minutes. A bolus dose of HMB (250 mg/kg body weight) was given by gavage 100 min after starting the experiment and sampling was continued for another 160-220 min.
HMB was measured using UPLC-MS. Specifically, samples of 30-40 μl in aCSF were microfiltered through a 0.2 μm nylon filter, diluted with an equal amount of water, and then injected into the UPLC-TQD (Acuity-TQD system available from Waters Corporation, Milford, Mass.). HMB was analyzed using a BEH Hillic column 1.7 μm; 2.1×150 mm using a gradient consisting of H2O:MeCN 0.1% formic acid. The mass spectrometer was set to Ion Mode ES+.

Neuro-2A cells = assay: Rate of protein synthesis, incorporation of [3H]-tyrosine into cellular protein pool; type: cell-based; conditions: HMB vs. Control, FIG. 4
Description: The effect of HMB on the rate of protein synthesis in Neuro-2A cells was determined by measuring the incorporation of [3H]-tyrosine into cellular protein pool. The phosphorylative status of mTOR and up/down-protein kinases (Akt, ERK 1/2) was determined by western blot. The cell proliferation/viability was determined with the MTT (3-(4,5-dimethylthiazol-2-yl)-2,5-diphenyltetrazolium bromide) colorimetric assay. Data are expressed as mean±SEM. Student t-test was used to analyze the results.

[2] = tested on: MEF2 transcription factor; assay: MEF2-dependent transcription luciferase activity (pGL3-4xMEF transfection); type: cell-based; conditions: Neuro 2A cells; inhibitor added with HMB; FIGS. 5B-5D
Description: For the transfection experiments in this Example, Neuro-2A cells were used at 80-90% confluence grown in Dulbecco's Modified Eagle's medium (DMEM). Cells were exposed for 5 hours to plasmid pGL3-4×MEF, which contains 4 copies in tandem of the MEF2D binding DNA sequence prior to the sequence of DNA which codes for firefly luciferase. Effectors were added to the medium for 18 h and luciferase activity was determined. For the study of inhibition of signaling factors, inhibitors of the phosphatidyl-inositol 3 kinase (LY294002), ERK 1/2 (PD98059) and mTORC1 activations (rapamycin) were added to the cells.
Data are expressed as mean±SEM. Student t-test was used to analyze the results.

Row | SMILES | crossing of the blood brain barrier ([1]; oral administration, microdialysis model in rats) | maximum concentration of HMB measured in brain microdialysates ([1]; rat 1, 250 mg/kg bolus by gavage) | time after administration at which HMB appeared in the brain ([1]; rat 1, 250 mg/kg bolus by gavage, brain microdialysate (fraction 7)) | HMB concentration level at end of sampling ([1]; rat 1, more than 2.5 hours after the gavage) | maximum concentration of HMB in brain microdialysates ([1]; rat 2, 250 mg/kg bolus by gavage) | fraction in which HMB was detected for the first time ([1]; rat 2, 250 mg/kg by gavage at fraction 5, 20 min fractions) | HMB concentration level at end of experiment ([1]; rat 2, more than 3.5 h after the gavage) | increase on the protein synthesis (Neuro-2A cells) | effect of inhibitor on the HMB-mediated increase in MEF2 [2]
1 | CC(C)(O)CC(=O)O [HMB, beta-hydroxy-beta-methylbutyrate] | able to cross the blood brain barrier | 10.5 ppm | 40 min | had not decreased | more than 4 ppm | fraction 7 | had not yet reached basal level | 20% | –
2 | COc1cccc(-c2cc(=O)c3ccccc3o2)c1N [PD98059] | – | – | – | – | – | – | – | – | totally blocked
